The target in this test is T1, IRAK4 (Homo sapiens, UniProt Q9NWZ3).
T1 construct: endogenous in cells; host or cells: OCI-LY10
T1 sequence (Q9NWZ3 1-460): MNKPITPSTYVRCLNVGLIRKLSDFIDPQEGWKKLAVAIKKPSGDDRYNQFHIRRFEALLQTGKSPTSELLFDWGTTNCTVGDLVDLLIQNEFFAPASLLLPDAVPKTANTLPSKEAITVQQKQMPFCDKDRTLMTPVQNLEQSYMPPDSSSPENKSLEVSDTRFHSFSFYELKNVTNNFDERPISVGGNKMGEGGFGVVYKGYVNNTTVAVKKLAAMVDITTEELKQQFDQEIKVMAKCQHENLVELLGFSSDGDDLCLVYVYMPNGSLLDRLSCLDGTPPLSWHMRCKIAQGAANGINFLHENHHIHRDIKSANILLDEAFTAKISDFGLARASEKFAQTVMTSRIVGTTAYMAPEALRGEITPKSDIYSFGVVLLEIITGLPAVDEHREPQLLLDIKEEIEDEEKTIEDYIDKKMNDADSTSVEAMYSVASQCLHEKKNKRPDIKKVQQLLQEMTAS
Nature of the test: IRAK4 MSD degradation in OCI-LY10. To be noted: OCI-LY10 cells, 24 hrs, Meso Scale Discovery. Type of test: cell-based. The procedure:
Degradation of IRAK4 in OCI-LY10 was quantitatively measured using Meso Scale Discovery technology. […] Compounds were then added to the assay plates with a final top concentration of 1 to 10 μM in a 1:3 dilution series with total of 8 doses. The assay plates were then incubated for 4 to 24 hours at 37° C. under 5% CO2. […] To prepare MSD assay plates (Meso Scale Discovery Catalog number L15XA-3), the plates were coated with 2 μg/mL capture antibody (mouse Anti-IRAK4 antibody [2H9], ab119942) in PBS, at 40 μL/well. […] Cell lysates were then added to MSD assay plates and the plates were incubated at room temperature for 1 hour. The plates were then washed 3 times with 150 μL/well TBST buffer and 25 μL/well primary detection antibody (rabbit Anti-IRAK4 antibody [Y279], from Abcam. Catalog number ab32511, 1 μg/mL). The assay plates were then incubated at room temperature for 1 hour, washed 3 times with 150 μL/well TBST buffer and 25 μL/well secondary detection antibody, SULFO-TAG anti-rabbit antibody were added (anti-rabbit antibody from Meso Scale Discovery, Catalog number R32AB-1, 1 μg/mL). The assay plates were then incubated at room temperature for 1 hour, washed 3 times with 150 μL/well TBST buffer, and 150 μL/well MSD reading buffer (Meso Scale Discovery catalog number R92TC-2) was added. The plates were then analyzed by a MSD reader (Meso Scale Discovery, Model Quick Plex SQ 120). The data was then analyzed by software Prism 7.0 from GraphPad and the dose-depended IRAK4 degradation were fit using a three-parameter logistic equation to calculate DC50.
The letter codes for IRAK4 DC50 include: A (<0.01 μM); B (0.01 to <0.1 μM); C (0.1 to 0.2 μM); D (>0.2 μM) and E (not tested).
In the case of `CN(C[C@H]1CC[C@H](c2cn3cc(NC(=O)c4cncc(C(F)(F)F)n4)c(C(C)(C)O)cc3n2)CC1)[C@H]1CCN(c2cccc3c2n(C)c(=O)n3C2CCC(=O)NC2=O)C[C@@H]1F` (single isomer, unassigned) [I-335], the half-maximal degradation concentration (DC50) (usually the concentration giving 50% degradation) was less than 10 nM.

In turn, `CN(C[C@H]1CC[C@H](c2cn3cc(NC(=O)c4cncc(C(F)(F)F)n4)c(C(C)(C)O)cc3n2)CC1)[C@H]1CCN(c2cccc3c2n(C)c(=O)n3C2CCC(=O)NC2=O)C[C@H]1F` (single isomer, unassigned) [I-336] returned a half-maximal degradation concentration (DC50) of less than 10 nM.

Consider `Cc1nn(C2CCC(=O)NC2=O)c2cccc([C@H]3CCN(C[C@H]4CC[C@H](n5cc6cc(NC(=O)c7cncc(C(F)(F)F)n7)ncc6n5)CC4)C[C@@H]3F)c12` (single isomer, unassigned) [I-341], for which the 50% degradation concentration (DC50) fell in the range of 10 to 100 nM.

`CN(C[C@H]1CC[C@H](c2cn3cc(NC(=O)c4cncc(C(F)(F)F)n4)c(C(C)(C)O)cc3n2)CC1)[C@@H]1CCN(c2cccc3c2n(C)c(=O)n3C2CCC(=O)NC2=O)C[C@@H]1F` (single isomer, unassigned) [I-344] had a DC50 of less than 10 nM.

`Cn1c(=O)n(C2CCC(=O)NC2=O)c2ccc([C@@H]3CCN(C[C@H]4CC[C@H](n5cc6cc(NC(=O)c7cncc(C(F)(F)F)n7)ccc6n5)CC4)C[C@H]3F)cc21` (single isomer, unassigned) [I-349]: the DC50 is more than 200 nM.

In turn, `Cn1c(=O)n(C2CCC(=O)NC2=O)c2ccc([C@H]3CCN(C[C@H]4CC[C@H](n5cc6cc(NC(=O)c7cncc(C(F)(F)F)n7)ccc6n5)CC4)C[C@@H]3F)cc21` (single isomer, unassigned) [I-351] came in with a DC50 of more than 200 nM.

The molecule `Cn1nc(C2CCC(=O)NC2=O)c2cccc([C@H]3CCN(C[C@H]4CC[C@H](n5cc6cc(NC(=O)c7cncc(C(F)(F)F)n7)ncc6n5)CC4)C[C@@H]3F)c21` (single isomer, unassigned) [I-359] registered a DC50 of 10 to 100 nM.

In the case of `Cn1c(=O)n(C2CCC(=O)NC2=O)c2ccc(F)c([C@@H]3CCN(C[C@H]4CC[C@H](n5cc6cc(NC(=O)c7cncc(C(F)(F)F)n7)ccc6n5)CC4)CC3(F)F)c21` (single isomer, unassigned) [I-376], the DC50 was less than 10 nM.

Regarding `Cn1c(=O)n(C2CCC(=O)NC2=O)c2ccc(F)c([C@H]3CCN(C[C@H]4CC[C@H](n5cc6cc(NC(=O)c7cncc(C(F)(F)F)n7)ccc6n5)CC4)CC3(F)F)c21` (single isomer, unassigned) [I-377], the DC50 was less than 10 nM.

Regarding `Cn1nc(C2CCC(=O)NC2=O)c2cccc([C@@H]3CCN(C[C@H]4CC[C@H](n5cc6cc(NC(=O)c7cncc(C(F)(F)F)n7)ccc6n5)CC4)CC3(F)F)c21` (single isomer, unassigned) [I-379], the DC50 was less than 10 nM.

Molecule `Cn1nc(C2CCC(=O)NC2=O)c2cccc([C@H]3CCN(C[C@H]4CC[C@H](n5cc6cc(NC(=O)c7cncc(C(F)(F)F)n7)ccc6n5)CC4)CC3(F)F)c21` (single isomer, unassigned) [I-380] returned a DC50 of less than 10 nM.

`Cn1c(=O)n([C@@H]2CCC(=O)NC2=O)c2cccc([C@@H]3CCN(C[C@H]4CC[C@H](n5cc6cc(NC(=O)c7cncc(C(F)(F)F)n7)ccc6n5)CC4)CC3(F)F)c21` (single isomer, unassigned) [I-381]: the DC50 is less than 10 nM.

`Cn1c(=O)n([C@H]2CCC(=O)NC2=O)c2cccc([C@@H]3CCN(C[C@H]4CC[C@H](n5cc6cc(NC(=O)c7cncc(C(F)(F)F)n7)ccc6n5)CC4)CC3(F)F)c21` (single isomer, unassigned) [I-385] gave a DC50 of less than 10 nM.

The molecule `Cn1nc([C@H]2CCC(=O)NC2=O)c2cccc([C@@H]3CCN(C[C@H]4CC[C@H](n5cc6cc(NC(=O)c7cncc(C#N)c7)c(C(C)(C)O)cc6n5)CC4)CC3(F)F)c21` (single isomer, unassigned) [I-417] yielded a half-maximal degradation concentration (DC50) of less than 10 nM.

In turn, `O=C1CCC(Nc2cccc(N3CC(CO[C@H]4CCN(C[C@H]5CC[C@H](n6cc(NC(=O)c7cnn8ccc(N9C[C@H]%10C[C@@H]9CO%10)nc78)c(C(F)F)n6)CC5)C[C@@H]4F)C3)c2)C(=O)N1` (stereo partly drawn) [I-1] yielded a DC50 of 100 to 200 nM.

For the molecule `CN(C[C@H]1CC[C@H](n2cc3cc(NC(=O)c4cccc(C(F)(F)F)n4)c(C(C)(C)O)cc3n2)CC1)[C@@H]1CCN(c2cccc3c2n(C)c(=O)n3C2CCC(=O)NC2=O)C[C@H]1F` (stereo partly drawn) [I-2], the DC50 is less than 10 nM.

In turn, `CN1C(=O)CCC(n2c(=O)n(C)c3c(N4CC(N5CCN([C@H]6CC[C@H](n7cc(NC(=O)c8cnn9ccc(N%10C[C@H]%11C[C@@H]%10CO%11)nc89)c(C(F)F)n7)CC6)CC5)C4)c(F)ccc32)C1=O` (stereo partly drawn) [I-3] had a half-maximal degradation concentration (DC50) of more than 200 nM.

In the case of `O=C1CCC(Nc2cccc(N3CC(CO[C@@H]4CCN(C[C@H]5CC[C@H](n6cc(NC(=O)c7cnn8ccc(N9C[C@H]%10C[C@@H]9CO%10)nc78)c(C(F)F)n6)CC5)C[C@@H]4F)C3)c2)C(=O)N1` (stereo partly drawn) [I-5], the DC50 fell in the range of 10 to 100 nM.

`Cn1c(=O)n(C2CCC(=O)NC2=O)c2cccc([C@@H]3CCN(C[C@H]4CC[C@H](n5cc6cc(NC(=O)c7cccc(C(F)(F)F)n7)c(C(C)(C)O)cc6n5)CC4)C[C@H]3F)c21` (stereo partly drawn) [I-7] showed a DC50 of less than 10 nM.

For the molecule `CN(C[C@H]1CC[C@H](n2cc3cc(NC(=O)c4cccc(C(F)(F)F)n4)c(C#N)cc3n2)CC1)[C@H]1CCN(c2cccc3c2n(C)c(=O)n3C2CCC(=O)NC2=O)C[C@H]1F` (stereo partly drawn) [I-8], the DC50 was less than 10 nM.

With `CN(C[C@H]1CC[C@H](n2cc3cc(NC(=O)c4cccc(C(F)(F)F)n4)c(C#N)cc3n2)CC1)[C@H]1CCN(c2cccc3c2n(C)c(=O)n3C2CCC(=O)NC2=O)C[C@@H]1F` (stereo partly drawn) [I-9], the half-maximal degradation concentration (DC50) was less than 10 nM.

`CN(C[C@H]1CC[C@H](n2cc3cc(NC(=O)c4cccc(C(F)(F)F)n4)c(C#N)cc3n2)CC1)[C@@H]1CCN(c2cccc3c2n(C)c(=O)n3C2CCC(=O)NC2=O)C[C@@H]1F` (stereo partly drawn) [I-10] showed a half-maximal degradation concentration (DC50) of less than 10 nM.

`O=C1CCC(Nc2cccc(N3CC(CN4CCN(C[C@H]5CC[C@H](n6cc(NC(=O)c7cnn8ccc(N9C[C@H]%10C[C@@H]9CO%10)nc78)c(C(F)F)n6)CC5)CC4)C3)c2)C(=O)N1` (stereo partly drawn) [I-13] showed a DC50 of 10 to 100 nM.

In turn, `O=C1CCC(c2ccc(N3CC(N4CCN([C@H]5CC[C@H](n6cc(NC(=O)c7cnn8ccc(N9CCCC9)nc78)c(C(F)F)n6)CC5)CC4)C3)cc2Cl)C(=O)N1` (stereo partly drawn) [I-14] came in with a DC50 of less than 10 nM.

For the molecule `O=C1CCC(Nc2cccc(N3CCN(C[C@H]4CC[C@H](n5cc6cc(NC(=O)c7cccc(C(F)(F)F)n7)ncc6n5)CC4)CC3)c2)C(=O)N1` (stereo partly drawn) [I-15], the DC50 was more than 200 nM.

`O=C1CCC(Nc2ccc(N3CC(CN4CCN(C[C@H]5CC[C@H](n6cc(NC(=O)c7cnn8ccc(N9C[C@H]%10C[C@@H]9CO%10)nc78)c(C(F)F)n6)CC5)CC4)C3)cc2Cl)C(=O)N1` (stereo partly drawn) [I-16] yielded a DC50 of 10 to 100 nM.

The molecule `Cc1nn(C2CCC(=O)NC2=O)c2cccc(N3CC(O)(CN4CCN(C[C@H]5CC[C@H](n6cc(NC(=O)c7cnn8ccc(N9C[C@H]%10C[C@@H]9CO%10)nc78)c(C(F)F)n6)CC5)CC4)C3)c12` (stereo partly drawn) [I-19] yielded a DC50 of less than 10 nM.

With `CN(C[C@H]1CC[C@H](n2cc(NC(=O)c3cnn4ccc(N5CCCC5)nc34)c(C(F)F)n2)CC1)[C@H]1CCN(c2cccc3c2n(C)c(=O)n3C2CCC(=O)NC2=O)C[C@@H]1F` (stereo partly drawn) [I-22], the DC50 is less than 10 nM.

`CN(C[C@H]1CC[C@H](n2cc(NC(=O)c3cnn4ccc(N5CCCC5)nc34)c(C(F)F)c2)CC1)[C@@H]1CCN(c2cccc3c2n(C)c(=O)n3C2CCC(=O)NC2=O)C[C@@H]1F` (stereo partly drawn) [I-23]: the 50% degradation concentration (DC50) is less than 10 nM.

`C[C@H]1CN(c2ccn3ncc(C(=O)Nc4cn([C@H]5CC[C@H](CN(C)[C@H]6CCN(c7cccc8c7n(C)c(=O)n8C7CCC(=O)NC7=O)C[C@H]6F)CC5)nc4C(F)F)c3n2)CCO1` (stereo partly drawn) [I-24]: the DC50 was less than 10 nM.

`C[C@H]1CN(c2ccn3ncc(C(=O)Nc4cn([C@H]5CC[C@H](CN(C)[C@H]6CCN(c7cccc8c7n(C)c(=O)n8C7CCC(=O)NC7=O)C[C@@H]6F)CC5)nc4C(F)F)c3n2)CCO1` (stereo partly drawn) [I-25]: the DC50 is less than 10 nM.

In the case of `C[C@H]1CN(c2ccn3ncc(C(=O)Nc4cn([C@H]5CC[C@H](CN(C)C6CCN(c7cccc8c7n(C)c(=O)n8C7CCC(=O)NC7=O)C[C@@H]6F)CC5)nc4C(F)F)c3n2)CCO1` (stereo partly drawn) [I-26], the 50% degradation concentration (DC50) is less than 10 nM.

Molecule `CN(C[C@H]1CC[C@H](n2cc3cc(NC(=O)c4cccc(C(F)(F)F)n4)ccc3n2)CC1)[C@H]1CCN(c2cccc3c2n(C)c(=O)n3C2CCC(=O)NC2=O)C[C@H]1F` (stereo partly drawn) [I-31] returned a 50% degradation concentration (DC50) of less than 10 nM.

The values are drawn from US20250059164A1, “IRAK DEGRADERS AND USES THEREOF” (Kymera Therapeutics, Inc., priority 2023, published 2025).
